Experimental data from patent US20250262185A1, “METHODS OF ADMINISTERING NEUROPSYCHIATRIC MEDICATIONS BASED ON RENAL IMPAIRMENT” (Sumitomo Pharma America, Inc., priority 2024, published 2025).
Where two headings read alike, the source gives them in different places.

Legend:
hERG = hERG (Homo sapiens, UniProt Q12809); test: toxicological studies, hERG inhibition; assay type: biochemical; conditions: concentrations up to 30 μM
[1] = in vivo
Source text: Any of the embodiments of this disclosure can be practiced to prevent accumulation of SEP-103 in the body exceeding levels studied and deemed safe in preclinical toxicology studies. […].

[2] = Phase 1 pharmacokinetic study of SEP-363856 in subjects with severe renal impairment and ESRD compared to normal renal function (Example 1)
Protocol: Renal function was assessed according to estimated glomerular filtration rate (eGFR) calculated using the Modification of Diet in Renal Disease (MDRD) equation at Screening and Check-in. Estimates calculated using the Cockcroft-Gault equation were also reported. Subjects in Group 1 had severe renal impairment not requiring dialysis and subjects in Group 2 had ESRD requiring dialysis.
Healthy matched controls with normal renal function were enrolled to match (age, sex, weight, race) across the 2 groups. A healthy control could be matched to more than 1 renally impaired subject. Potential subjects were screened to assess their eligibility to enter the study within 28 days (Day −28 to Day −3) prior to dose administration (Day 1). Each subject completed 1 or 2 treatment periods (1 treatment period for Group 1 and normal healthy subjects with normal renal function and 2 treatment periods for Group 2).
Subjects in Group 1 and the normal healthy subjects were admitted into the Clinical Research Unit (CRU) on Day −2 and confined to the CRU until discharge on Day 5. […] No food was allowed for 4 hours post-dose. Subjects in Group 1 returned to the CRU for a Follow-up visit approximately 7 days after discharge (i.e., Day 12±2).
Subjects in Group 2 followed their established dialysis schedule. They were admitted into the CRU on Day −2 and confined to the CRU until discharge on Day 5. […]

[3] = Phase 1 pharmacokinetic study of SEP-856 in subjects with mild and moderate renal impairment compared to normal renal function (Example 3); conditions: for SEP-383103 AUC0-∞ Geo LS Mean / SEP-383103 Cmax Geo LS Mean: ANOVA; for SEP-383103 AUC0-∞ Geo LS Mean / SEP-383103 Cmax Geo LS Mean / MRAUC (metabolite-to-parent ratio based on AUC0-∞) / SEP-383103 plasma Cmax / SEP-383103 plasma Tmax: n=8; for MRAUC (metabolite-to-parent ratio based on AUC0-∞) / SEP-383103 plasma Cmax: GeoMean; for SEP-383103 plasma Cmax / SEP-383103 plasma Tmax: metabolite after single dose SEP-363856 25 mg; for SEP-383103 plasma Tmax: Median
Protocol: (§1) Renal function was assessed according to estimated glomerular filtration rate (eGFR) calculated using the Modification of Diet in Renal Disease (MDRD) equation at Screening and Check-in.
(§2) Healthy controls with normal renal function were enrolled in an effort to approximately match demographics (age, sex, weight, race) across the 2 groups. Potential subjects were screened to assess their eligibility to enter the study within 28 days (Day −28 to Day −3) prior to dose administration (Day 1).
(§3) Nine healthy controls, 9 subjects with mild renal impairment, and 6 subjects with moderate renal impairment were enrolled.
(§4) Male and female subjects aged between 18 and 70 years (inclusive) with a body mass index (BMI) between 18.0 and 40.0 kg/m^2 (inclusive) were eligible for study inclusion. Subjects were in good health except for specific inclusion criteria related to the status of renal impairment.
(§5) Subjects fasted for a minimum of 8 hours before dosing, and an additional 4 hours post-dose; intake of water was restricted except for the period from 1-hour pre-dose through 1-hour post-dose.
(§6) Final Results: Results were obtained by fitting an ANOVA model to the natural log-transformed PK parameter, with renal function group as fixed effect and subject as random effect. Results were back transformed to obtain the geometric LS mean ratio and 90% CI.

clinical = conditions: both, human, plasma, oral, 25 mg
Protocol: as §1, §2, §3, §4, §5, §6

[4] = final results, Moderate vs Healthy

Chain of hERG (Q12809 whole entry): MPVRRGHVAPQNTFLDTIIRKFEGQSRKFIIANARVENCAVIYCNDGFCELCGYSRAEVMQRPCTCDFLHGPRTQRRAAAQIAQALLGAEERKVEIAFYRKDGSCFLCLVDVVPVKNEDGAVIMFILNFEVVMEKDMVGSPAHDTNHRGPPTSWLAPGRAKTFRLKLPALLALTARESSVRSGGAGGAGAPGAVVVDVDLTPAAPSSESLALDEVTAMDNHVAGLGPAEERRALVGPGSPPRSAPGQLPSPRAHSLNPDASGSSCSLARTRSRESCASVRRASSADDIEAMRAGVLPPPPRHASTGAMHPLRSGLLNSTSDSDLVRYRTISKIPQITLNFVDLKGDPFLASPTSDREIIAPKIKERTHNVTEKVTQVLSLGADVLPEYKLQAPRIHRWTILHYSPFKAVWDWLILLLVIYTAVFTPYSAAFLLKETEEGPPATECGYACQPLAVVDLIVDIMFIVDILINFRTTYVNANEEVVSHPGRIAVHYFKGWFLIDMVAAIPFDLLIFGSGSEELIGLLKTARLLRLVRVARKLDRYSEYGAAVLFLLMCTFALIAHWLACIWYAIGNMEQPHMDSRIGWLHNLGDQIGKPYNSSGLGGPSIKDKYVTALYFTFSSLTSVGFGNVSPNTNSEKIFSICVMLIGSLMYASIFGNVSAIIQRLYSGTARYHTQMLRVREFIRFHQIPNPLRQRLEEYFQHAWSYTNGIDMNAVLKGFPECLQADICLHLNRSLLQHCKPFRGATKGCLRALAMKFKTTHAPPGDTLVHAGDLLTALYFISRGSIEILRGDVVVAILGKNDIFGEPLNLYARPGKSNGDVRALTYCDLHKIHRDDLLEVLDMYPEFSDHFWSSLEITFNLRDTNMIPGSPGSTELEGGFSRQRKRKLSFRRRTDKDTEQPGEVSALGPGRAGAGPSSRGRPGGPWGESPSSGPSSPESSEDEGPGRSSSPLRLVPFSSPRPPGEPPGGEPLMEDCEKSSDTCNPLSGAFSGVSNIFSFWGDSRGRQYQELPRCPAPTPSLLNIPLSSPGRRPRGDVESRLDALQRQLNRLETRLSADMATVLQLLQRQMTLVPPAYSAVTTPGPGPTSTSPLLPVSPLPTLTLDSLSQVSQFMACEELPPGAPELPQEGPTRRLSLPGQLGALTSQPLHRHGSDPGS

SMILES: O=C(O)[C@@H]1OCCc2ccsc21 [SEP-383103]
- hERG inhibition (hERG): no hERG inhibition
- blood concentration studied and deemed to be safe ([1]; dog): 1100 ng/mL
- exposure level studied and deemed to be safe ([1]; dog): 12200 ng·h/mL
- blood concentration studied and deemed to be safe ([1]; rat): 700 ng/mL
- exposure level studied and deemed to be safe ([1]; rat): 11700 ng·h/mL
- correlation between exposure (AUC0-∞ and AUC0-last) and renal function ([2]; human, in vivo): strong correlation
- metabolite median Tmax versus healthy subjects ([2]; severe renal impairment): delayed substantially
- correlation between exposure (AUC0-∞ and Cmax) and degree of renal impairment ([3]; final results): significant correlation
- SEP-383103 AUC0-∞ Geo LS Mean ([3]; final results, Mild): 769.5 ng·h/mL
- SEP-383103 Cmax Geo LS Mean ([3]; final results, Mild): 54.98 ng/mL
- SEP-383103 AUC0-∞ Geo LS Mean ([3]; final results, Moderate): 1043 ng·h/mL
- SEP-383103 Cmax Geo LS Mean ([3]; final results, Moderate): 56.30 ng/mL
- MRAUC (metabolite-to-parent ratio based on AUC0-∞) ([3]; final results, Healthy): 0.7348
- SEP-383103 AUC0-∞ Geo LS Mean Ratio ([3]; final results, Mild vs Healthy): 125.47%
- SEP-383103 Cmax Geo LS Mean Ratio ([3]; final results, Mild vs Healthy): 128.43%
- MRAUC (metabolite-to-parent ratio based on AUC0-∞) ([3]; final results, Mild): 0.9643
- SEP-383103 AUC0-∞ Geo LS Mean Ratio [3, 4]: 170.12%
- SEP-383103 Cmax Geo LS Mean Ratio [3, 4]: 131.50%
- MRAUC (metabolite-to-parent ratio based on AUC0-∞) ([3]; final results, Moderate): 1.276
- SEP-383103 plasma Cmax ([3]; final results, Mild): 54.98 ng/mL
- SEP-383103 plasma Tmax ([3]; final results, Mild): 5.000 h
- SEP-383103 plasma Cmax ([3]; final results, Moderate): 56.30 ng/mL
- SEP-383103 plasma Tmax ([3]; final results, Moderate): 6.000 h
- metabolite Tmax change ([3]; mild renal impairment vs healthy): no change
- AUC(0-inf) (clinical): 613 ng·h/mL
